Reference: publication PMC11212140, “Molecular Bidents with Two Electrophilic Warheads as a New Pharmacological Modality” (ACS Central Science, 2024)

Columns and labels:
CHED = test system: T1, CHED; assay: KiNativ profiling in H3255 cells; type: cell-based, human; conditions: 2.5 µM; Lys2; DIKCSNILLNNR
T1 construct: purchased ActivX Biosciences (KiNativ)

EGFR = test system: T2, EGFR; assay: Cellular target engagement assays (competitive pulldown); type: cell-based; conditions: EGFR^L858R Ba/F3 cells, 6 h pretreatment
T2 construct: expressed in transfected cells; host or cells: Ba/F3 (murine pro-B cells transduced with an EGFR mutant expression vector)
Method: Figure 4 ZNL-0056 covalently engages Cys775 and Cys797 in EGFR Ba/F3 cells. (A) Carton of competition EGFR pulldown strategy to test covalent EGFR engagement in cells. (B) Competitive pulldown assay in EGFR^L858R Ba/F3 cells treated with ZNL-0056 at the indicated concentrations for 6 h. Cell lysates were incubated with bio-osimertinib. (C) Competitive pulldown assay in EGFR^L858R Ba/F3 cells treated with ZNL-0056 at the indicated concentrations for 6 h. Cell lysates were incubated with bio-ZNL-0013, which competes for the binding pocket of the target kinase. (D) Competitive pulldown assay in EGFR^L858R/C797S Ba/F3 cells treated with ZNL-0056 at the indicated concentrations for 6 h. Cell lysates were incubated with bio-ZNL-0013, which competes for the binding pocket of the target kinase. Western blotting showing the pulldown (PD) or input (total lysate) of EGFR. […]
treatment. Cell viability was determined by using CellTiter-Glo (Promega #G7571) according to the manufacturer’s instructions, measuring luminescence using an Envision plate-reader (PerkinElmer Inc.). […]
After 6 hours treatment, cells were pelleted, washed with PBS once and lysed with IP lysis buffer (25mMTris-HCl pH 7.4, 150mM NaCl, 1 mM EDTA, 1% NP-40 and 5% glycerol) (Thermo Fisher Scientific, Cat#87788) containing protease/phosphatase inhibitor cocktail (Roche). The protein concentrations were measured by BCA analysis (Pierce). […]

MEK5 = MEK5 (Homo sapiens, UniProt Q13163); assay: LanthaScreen Binding activity assay; conditions: read-out: IC50 (nM) against MEK5
Description: Table S2. Biochemical activities against a panel of kinase targets […]
aIC50 (nM) against EGFR L858R, BTK, JAK3, ITK and BLK were obtained with Z’-LYTE biochemical assay. bIC50 (nM) against MEK5 was obtained with LanthaScreen Binding activity assay. c Kd (nM) of MKK7 were obtained from KdELECT assays (DiscoverX). […]
(1 picture or pasted object on this page, not shown here)

EGFR^L858R kinase domain = test system: T3, EGFR^L858R kinase domain; assay: Determining sites of probe modification by MS; type: biochemical; conditions: EGFR^L858R protein, mass spectrometry
T3 construct: purified recombinant EGFR^L858R kinase domain treated by the compounds; made in house
Description: Covalent docking (CovDock in Schrodinger software suite) was used to predict binding modes and scores of designed bident and mono-valent molecules. Thorough mode was used for docking and top 5 poses for each molecule were inspected visually to identify the most likely binding conformation based on the known core scaffold binding mode. Hinge hydrogen bonds of the core scaffolds were used as constraints in docking calculations. […]
reactive residues, only one cysteine was specified for covalent bond formation during docking of […]
for bident molecules, a proper binding mode required the other warhead in close proximity with its intended reactive cysteine. To obtain the final predicted binding mode in Figure 2B, the pre-reaction cysteine and warhead were manually linked with proper chemical bond, and the complex was optimized using receptor-ligand complex optimization protocol in Schrodinger suite with default settings. The final optimized complex was compared against the original binding mode to ensure minimal changes to the ligand and receptor residue conformations. […]
EGFR protein was treated with indicated probe for 2 hours at 30 °C in 50 mM HEPES buffer 100 mM NaCl pH 7.5. […] Peptides were desalted by C18 and analyzed by nanoLC-MS using a Waters NanoAcquity UPLC (Waters, Milford, MA) interfaced to a Orbitrap QExactive HF mass spectrometer (ThermoFisher Scientific, San Jose, CA). […]

Sequence of MEK5 (Q13163 whole entry, species assumed): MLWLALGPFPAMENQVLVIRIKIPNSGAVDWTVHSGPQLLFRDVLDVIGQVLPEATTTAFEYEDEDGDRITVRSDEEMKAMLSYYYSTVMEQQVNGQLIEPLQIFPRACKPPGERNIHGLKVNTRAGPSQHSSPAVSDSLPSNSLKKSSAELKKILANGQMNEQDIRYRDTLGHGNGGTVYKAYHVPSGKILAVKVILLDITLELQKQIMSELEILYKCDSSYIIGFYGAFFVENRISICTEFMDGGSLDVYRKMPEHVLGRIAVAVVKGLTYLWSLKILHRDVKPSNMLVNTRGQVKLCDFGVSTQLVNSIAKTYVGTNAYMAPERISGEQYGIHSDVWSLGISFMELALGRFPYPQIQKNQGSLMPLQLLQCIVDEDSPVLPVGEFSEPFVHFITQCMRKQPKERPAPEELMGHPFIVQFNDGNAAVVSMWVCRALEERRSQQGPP

## C=CC(=O)Nc1cc(Nc2nccc(-c3cn(C)c4ccccc34)n2)c(OC)cc1N(C)CCN(C)C [Osimertinib, osimertinib, reference compound]
CHED
  Inhibition: 28.0%

## C=CC(=O)Nc1cc(C(=O)Nc2nc3cccc(C)c3n2[C@@H]2CCCCN(C(=O)C=C)C2)cs1 [ZNL-0056]
EGFR
  prevention of EGFR binding to osimertinib-biotin target-engagement probe: dose-dependent manner
MEK5
  IC50: 2500 nM
EGFR^L858R kinase domain
  in vitro labeling of Cys797 and Cys775: high in vitro labeling efficacy
